Assay results from ChEMBL document CHEMBL1201862, “PubChem BioAssay data set” (2004).
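In this assay, cells in 96-well plates receive the compound at five concentrations for 48 hours. Endpoints are linearly interpolated between the surrounding concentrations. GI50 = concentration required for 50% inhibition of growth.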 Activity calls are given as the source filed them. Rule as the data show it: active = GI50 up to about 1.1 µM and inactive = higher.

Tests used:
Experiment in all cases: NCI-60 cell line screen, 48 h
[1] = test system: UACC-62
[2] = test system: LOX IMVI
[3] = test system: SF-539
[4] = test system: HT-29
[5] = test system: SF-268
[6] = test system: NCI-H460
[7] = test system: SK-MEL-5
[8] = test system: EKVX
[9] = test system: NCI/ADR-RES
[10] = test system: SK-MEL-28
[11] = test system: SNB-19
[12] = test system: U-251
[13] = test system: CCRF-CEM
[14] = test system: SK-MEL-2
[15] = test system: IGROV-1
[16] = test system: UACC-257
[17] = test system: K562
[18] = test system: HL-60
[19] = test system: HOP-92
[20] = test system: ACHN

| Structure (SMILES) | GI50 [1] | GI50 [2] | GI50 [3] | GI50 [4] | GI50 [5] | GI50 [6] | GI50 [7] | GI50 [8] | GI50 [9] | GI50 [10] | GI50 [11] | GI50 [12] | GI50 [13] | GI50 [14] | GI50 [15] | GI50 [16] | GI50 [17] | GI50 [18] | GI50 [19] | GI50 [20] |
| --- | --- | --- | --- | --- | --- | --- | --- | --- | --- | --- | --- | --- | --- | --- | --- | --- | --- | --- | --- | --- |
| CCCCS(=O)(=O)Nc1ccc(Nc2c3ccccc3nc3ccccc23)c(OC)c1 | 1.78 µM (inactive) | 1.26 µM (inactive) | 1.08 µM (active) | 1.67 µM (inactive) | 2.25 µM (inactive) | 0.0863 µM (active) | 5.2 µM (inactive) | 1.91 µM (inactive) | 5.36 µM (inactive) | 5.74 µM (inactive) | 1.94 µM (inactive) | 0.773 µM (active) | 0.338 µM (active) | 16.9 µM (inactive) | 5.57 µM (inactive) | 6 µM (inactive) | 2.51 µM (inactive) | 0.183 µM (active) | 2.15 µM (inactive) | – |
| C=C(Br)C(C)(Cl)CCC(Br)C(C)(C)Cl (stereo not drawn) | 86.9 µM (inactive) | 17.6 µM (inactive) | 74.8 µM (inactive) | 34.6 µM (inactive) | 63.8 µM (inactive) | > 100 µM (inactive) | 34.2 µM (inactive) | > 100 µM (inactive) | 72.1 µM (inactive) | > 100 µM (inactive) | > 100 µM (inactive) | > 100 µM (inactive) | 20.6 µM (inactive) | – | 77.3 µM (inactive) | 28.9 µM (inactive) | 46.3 µM (inactive) | 20.3 µM (inactive) | 35.1 µM (inactive) | 29.6 µM (inactive) |
| Cc1nc(C)c(C(=O)NNC(=O)C[N+](C)(C)C)cc1C(=O)NNC(=O)C[N+](C)(C)C | > 100 µM (inactive) | > 100 µM (inactive) | > 100 µM (inactive) | > 100 µM (inactive) | > 100 µM (inactive) | > 100 µM (inactive) | > 100 µM (inactive) | > 100 µM (inactive) | > 100 µM (inactive) | > 100 µM (inactive) | > 100 µM (inactive) | > 100 µM (inactive) | – | > 100 µM (inactive) | > 100 µM (inactive) | > 100 µM (inactive) | – | 62.1 µM (inactive) | > 100 µM (inactive) | > 100 µM (inactive) |
| O=S(=O)(O)Nc1ccc(-c2nc3ccccc3s2)cc1Cl | > 100 µM (inactive) | > 100 µM (inactive) | > 100 µM (inactive) | > 100 µM (inactive) | – | > 100 µM (inactive) | > 100 µM (inactive) | > 100 µM (inactive) | > 100 µM (inactive) | > 100 µM (inactive) | > 100 µM (inactive) | > 100 µM (inactive) | > 100 µM (inactive) | > 100 µM (inactive) | 1.67 µM (inactive) | > 100 µM (inactive) | > 100 µM (inactive) | > 100 µM (inactive) | > 100 µM (inactive) | > 100 µM (inactive) |
| Cc1cc(O)c2c(c1)C(=O)c1c(c(O)cc(O)c1-c1c(O)cc(O)c3c1C(=O)c1cc(C)cc(O)c1C3=O)C2=O [SKYRIN] | 10.4 µM (inactive) | 12.9 µM (inactive) | 10.6 µM (inactive) | 13.1 µM (inactive) | 13.9 µM (inactive) | 9.08 µM (inactive) | 9.44 µM (inactive) | 11.9 µM (inactive) | 35.2 µM (inactive) | 11.7 µM (inactive) | 2.5 µM (inactive) | 8.36 µM (inactive) | 7.6 µM (inactive) | 11.5 µM (inactive) | 12.9 µM (inactive) | 17.5 µM (inactive) | 7.87 µM (inactive) | 7.11 µM (inactive) | 13.1 µM (inactive) | – |
| C/C(Cl)=N\OC(=O)Nc1ccccc1C(F)(F)F | – | 14.9 µM (inactive) | > 100 µM (inactive) | 18.9 µM (inactive) | > 100 µM (inactive) | > 100 µM (inactive) | > 100 µM (inactive) | 19.9 µM (inactive) | 19.3 µM (inactive) | 17.8 µM (inactive) | > 100 µM (inactive) | > 100 µM (inactive) | 21.1 µM (inactive) | > 100 µM (inactive) | > 100 µM (inactive) | > 100 µM (inactive) | 19 µM (inactive) | 3.5 µM (inactive) | 6.61 µM (inactive) | 18.1 µM (inactive) |
| CSc1nc(NCc2ccccc2)c2cnn(COCCO)c2n1 | 43.9 µM (inactive) | 38.6 µM (inactive) | > 100 µM (inactive) | 37.8 µM (inactive) | 43.8 µM (inactive) | 39.3 µM (inactive) | 41.5 µM (inactive) | 21.4 µM (inactive) | 53 µM (inactive) | – | – | 44.5 µM (inactive) | 51.6 µM (inactive) | 43.7 µM (inactive) | 40.7 µM (inactive) | 20.3 µM (inactive) | 40.1 µM (inactive) | 42.7 µM (inactive) | 18.2 µM (inactive) | 31.9 µM (inactive) |
| COc1cc(-c2cc(-c3ccccc3)nc(-c3c(OC)ccc4c(C)cc(=O)oc34)c2)cc(OC)c1OC | > 100 µM (inactive) | > 100 µM (inactive) | > 100 µM (inactive) | > 100 µM (inactive) | > 100 µM (inactive) | > 100 µM (inactive) | > 100 µM (inactive) | > 100 µM (inactive) | > 100 µM (inactive) | – | > 100 µM (inactive) | > 100 µM (inactive) | > 100 µM (inactive) | > 100 µM (inactive) | > 100 µM (inactive) | > 100 µM (inactive) | > 100 µM (inactive) | 13.6 µM (inactive) | > 100 µM (inactive) | > 100 µM (inactive) |
| O=c1c2c3c(sc2nc2n1N=C(c1ccc([N+](=O)[O-])cc1)CS2)CCCC3 | > 100 µM (inactive) | > 100 µM (inactive) | > 100 µM (inactive) | > 100 µM (inactive) | > 100 µM (inactive) | > 100 µM (inactive) | > 100 µM (inactive) | > 100 µM (inactive) | > 100 µM (inactive) | > 100 µM (inactive) | – | > 100 µM (inactive) | > 100 µM (inactive) | – | > 100 µM (inactive) | > 100 µM (inactive) | > 100 µM (inactive) | > 100 µM (inactive) | > 100 µM (inactive) | > 100 µM (inactive) |
| O=C1CCCSC(=O)N1Cc1ccccc1 | > 100 µM (inactive) | > 100 µM (inactive) | > 100 µM (inactive) | > 100 µM (inactive) | > 100 µM (inactive) | > 100 µM (inactive) | > 100 µM (inactive) | > 100 µM (inactive) | > 100 µM (inactive) | > 100 µM (inactive) | > 100 µM (inactive) | – | > 100 µM (inactive) | > 100 µM (inactive) | > 100 µM (inactive) | > 100 µM (inactive) | – | > 100 µM (inactive) | > 100 µM (inactive) | > 100 µM (inactive) |
| Cc1cc2nc3ccccc3n2c2nc(N)ccc12 | 39.3 µM (inactive) | 22.1 µM (inactive) | 26.5 µM (inactive) | 34.3 µM (inactive) | 37.1 µM (inactive) | 4.02 µM (inactive) | 13.6 µM (inactive) | 53 µM (inactive) | 23.2 µM (inactive) | – | 20.6 µM (inactive) | – | 38.5 µM (inactive) | 65.6 µM (inactive) | 28.1 µM (inactive) | > 100 µM (inactive) | 54.1 µM (inactive) | 17.6 µM (inactive) | 16.6 µM (inactive) | 15.4 µM (inactive) |
| COc1ccc(C(C2=C(O)COC2=O)c2cc3c(cc2O)OCO3)cc1OC (stereo not drawn) | > 100 µM (inactive) | > 100 µM (inactive) | > 100 µM (inactive) | > 100 µM (inactive) | > 100 µM (inactive) | > 100 µM (inactive) | > 100 µM (inactive) | > 100 µM (inactive) | > 100 µM (inactive) | > 100 µM (inactive) | > 100 µM (inactive) | – | > 100 µM (inactive) | > 100 µM (inactive) | > 100 µM (inactive) | > 100 µM (inactive) | > 100 µM (inactive) | > 100 µM (inactive) | > 100 µM (inactive) | > 100 µM (inactive) |
| CCC(CC)C(=O)OC[n+]1ccc(-c2c(COC(=O)NC(C)C)c(COC(=O)NC(C)C)c3n2CCC3)cc1 | – | – | > 100 µM (inactive) | – | – | – | > 100 µM (inactive) | > 100 µM (inactive) | > 100 µM (inactive) | – | > 100 µM (inactive) | > 100 µM (inactive) | > 100 µM (inactive) | – | > 100 µM (inactive) | > 100 µM (inactive) | > 100 µM (inactive) | > 100 µM (inactive) | > 100 µM (inactive) | – |
| Cc1cc2c(cc1C(=O)CCC(=O)O)CC1(C2)Cc2cc(C)c(C(=O)CCC(=O)O)cc2C1 | – | > 100 µM (inactive) | > 100 µM (inactive) | > 100 µM (inactive) | > 100 µM (inactive) | > 100 µM (inactive) | > 100 µM (inactive) | > 100 µM (inactive) | > 100 µM (inactive) | > 100 µM (inactive) | > 100 µM (inactive) | > 100 µM (inactive) | > 100 µM (inactive) | > 100 µM (inactive) | > 100 µM (inactive) | > 100 µM (inactive) | > 100 µM (inactive) | > 100 µM (inactive) | > 100 µM (inactive) | > 100 µM (inactive) |
| O=C1c2cc3c(cc2CC12Cc1cc4c(cc1C2)CCC4)CCC3 | – | > 100 µM (inactive) | > 100 µM (inactive) | 93.8 µM (inactive) | > 100 µM (inactive) | > 100 µM (inactive) | > 100 µM (inactive) | > 100 µM (inactive) | > 100 µM (inactive) | > 100 µM (inactive) | > 100 µM (inactive) | > 100 µM (inactive) | > 100 µM (inactive) | > 100 µM (inactive) | > 100 µM (inactive) | > 100 µM (inactive) | 27 µM (inactive) | 59.6 µM (inactive) | > 100 µM (inactive) | > 100 µM (inactive) |
